In ChEMBL document CHEMBL6177918, “Generation and capture of naphthoquinonynes: a new frontier in the development of trypanocidal quinones via aryne chemistry” (RSC Med Chem, 2025):

Tests used:
Trypanosoma cruzi [1] = experiment: Trypanocidal activity against Trypanosoma cruzi trypomastigotes incubated for 24 hrs; type: functional, organism-based
Trypanosoma cruzi [2] = experiment: Trypanocidal activity against bloodstream Trypanosoma cruzi trypomastigotes incubated for 24 hrs by light microscopy; type: functional, organism-based
[3] = Solubility of compound; type: physicochemical
[4] = Stability of compound; type: physicochemical

SMILES	IC50 (Trypanosoma cruzi [2])	other results
CCOC(=O)/C=C/c1cccc2c1C(=O)C=CC2=O	–	IC50 (Trypanosoma cruzi [1]): 90.5 µM
CC12C=CC(C)(O1)c1cc3c(cc12)C(=O)C=CC3=O	40 µM	–
O=C1C=CC(=O)c2cc(N(c3ccccc3)c3ccccc3)ccc21	134 µM	–
Cc1ccc(-c2cc3c(cc2O)C(=O)C=CC3=O)cn1	24.2 µM	–
O=C1C=CC(=O)c2cc(-c3cccnc3)c(O)cc21	–	solubility [3]: Insoluble
Cc1ccncc1-c1cc2c(cc1O)C(=O)C=CC2=O	181 µM	–
CC(C)=C1C2C=CC1c1cc3c(cc12)C(=O)C=CC3=O	> 800 µM	–
O=C1C=CC(=O)c2cc3c(cc21)C1C=CC3O1	10.1 µM	–
O=C1C=CC(=O)c2cc(-c3cccc(-c4ccccc4)n3)c(O)cc21	30.1 µM	–
COc1ccc(OC)c2cc(O)ccc12	379 µM	–
CCN(CC)c1ccc2c(c1)C(=O)C=CC2=O	96.2 µM	–
O=C1C=CC(=O)c2cc(Nc3cccc4ccccc34)ccc21	186 µM	–
CCN(CC)C(=O)Oc1ccc2c(OC)ccc(OC)c2c1	> 800 µM	–
O=C1C=CC(=O)c2cc(N(Cc3ccccc3)Cc3ccccc3)ccc21	> 400 µM	–
CC(C)N(c1ccc2c(c1)C(=O)C=CC2=O)C(C)C	18 µM	–
C=CCN(CC=C)c1ccc2c(c1)C(=O)C=CC2=O	111 µM	–
CCC12C=CC(O1)c1cc3c(cc12)C(=O)C=CC3=O (stereo not drawn)	48.8 µM	–
O=C1C=CC(=O)c2cc(OCCCCOc3ccccc3)ccc21	362 µM	–
O=C1C=CC(=O)c2c([Se]c3ccccc3)cccc21	–	IC50 (Trypanosoma cruzi [1]): 14.4 µM

SMILES	IC50 (Trypanosoma cruzi [2])	other results
COc1ccc(OC)c2ccccc12	> 500 µM	–
O=C1C=CC(=O)c2c1cccc2-n1cc(-c2ccccc2)nn1	–	IC50 (Trypanosoma cruzi [1]): 86.7 µM
Cc1ccc(Nc2ccc3c(c2)C(=O)C=CC3=O)cc1	138 µM	–
O=C1C=CC(=O)c2cc(-c3cnc4ccccc4c3)c(O)cc21	46.6 µM	–
O=C1C=CC(=O)c2cc(-n3cccn3)ccc21	74.4 µM	–
O=C1C=CC(=O)c2cc(Nc3ccccc3)ccc21	39.2 µM	–
O=C1C=CC(=O)c2cc(N(C3CCCCC3)C3CCCCC3)ccc21	54.2 µM	–
CC(=O)C12C=CC(O1)c1cc3c(cc12)C(=O)C=CC3=O (stereo not drawn)	64.4 µM	–
COc1ccc(OC)c2cc([Si](C)(C)C)c(O)cc12	69.3 µM	–
COCC12C=CC(O1)c1cc3c(cc12)C(=O)C=CC3=O (stereo not drawn)	58.1 µM	–
O=C1C=CC(=O)c2cc(-c3ccc(-c4ccccc4)nc3)c(O)cc21	10.5 µM	–
CN(c1ccccc1)c1ccc2c(c1)C(=O)C=CC2=O	29.5 µM	–
CC(=O)OCC12C=CC(O1)c1cc3c(cc12)C(=O)C=CC3=O (stereo not drawn)	27.3 µM	–
N#Cc1ccc(Nc2ccc3c(c2)C(=O)C=CC3=O)cc1	94.8 µM	–
C[Si](C)(C)c1cc2c(cc1OS(=O)(=O)C(F)(F)C(F)(F)C(F)(F)C(F)(F)F)C(=O)C=CC2=O	–	Stability [4]: Unstable
COc1ccc(OC)c2cc([Si](C)(C)C)c(OS(=O)(=O)C(F)(F)C(F)(F)C(F)(F)C(F)(F)F)cc12	–	solubility [3]: Insoluble
O=C(Cn1ccnc1[N+](=O)[O-])NCc1ccccc1 [BENZNIDAZOLE]	108 µM	IC50 (Trypanosoma cruzi [1]): 6.8 µM
O=C1C=CC(=O)c2c(O)cccc21 [JUGLONE]	–	IC50 (Trypanosoma cruzi [1]): 105 µM
